Experimental data reported in ChEMBL document CHEMBL6114999, “Natural pyrrolo[1,2-a]quinazolinone derivatives: Design, synthesis, characterization, and bio-evaluation as novel antiviral agents” (Eur J Med Chem, 2025).
Activity calls are given as the source filed them. No cut-off for these calls is given here.

Tests used:
[1] = system: Enterovirus; assay: Antiviral activity against EV71 infected in human RD cells assessed as inhibition of virus-induced cell death at 25 to 100 uM incubated for 48 hrs by MTT assay; type: functional, organism-based; settings: 71, dose 25-100 µM
[2] = system: Enterovirus; assay: Antiviral activity against EV71 infected in human RD cells assessed as inhibition of virus-induced cell death at 100 uM incubated for 48 hrs by MTT assay relative to control; type: functional, 71; settings: for inhibition at 100 µM: Enterovirus, 71, RD
[3] = Selectivity index, ratio of CC50 for cytotoxicity against HEp-2 cells to EC50 for antiviral activity against CVB3 infected in HEp-2 cells; type: toxicity, cell-based; settings: human, read-out: Ratio CC50/EC50
[4] = system: Coxsackievirus B3; assay: Antiviral activity against CVB3 infected in HEp-2 cells assessed as inhibition of virus-induced cell death at 100 uM incubated for 48 hrs by MTT assay relative to control; type: functional; settings: for inhibition at 100 µM: Enterovirus B, HEp-2, 48 h; for inhibition (INH): 48 h, 100 µM
[5] = system: Enterovirus; assay: Antiviral activity against EV71 infected in human RD cells assessed as inhibition of virus-induced cell death at 50 uM incubated for 48 hrs by MTT assay relative to control; type: functional; settings: Enterovirus, 71, RD
[6] = system: Coxsackievirus B3; assay: Antiviral activity against CVB3 infected in HEp-2 cells assessed as inhibition of virus-induced cell death at 25 to 100 uM incubated for 48 hrs by MTT assay; type: functional, organism-based; settings: dose 25-100 µM
[7] = system: Enterovirus; assay: Antiviral activity against EV71 infected in human RD cells assessed as inhibition of virus-induced cell death at 25 uM incubated for 48 hrs by MTT assay relative to control; type: functional; settings: Enterovirus, 71, RD
[8] = Selectivity index, ratio of CC50 for cytotoxicity against human RD cells to EC50 for antiviral activity against EV71 infected in human RD cells; type: toxicity, cell-based; settings: read-out: Ratio CC50/EC50
[9] = system: Coxsackievirus B3; assay: Antiviral activity against CVB3 infected in HEp-2 cells assessed as inhibition of virus-induced cell death at 25 uM incubated for 48 hrs by MTT assay relative to control; type: functional; settings: Enterovirus B
[10] = system: Coxsackievirus B3; assay: Antiviral activity against CVB3 infected in HEp-2 cells assessed as inhibition of virus-induced cell death at 50 uM incubated for 48 hrs by MTT assay relative to control; type: functional; settings: Enterovirus B
[11] = system: Coxsackievirus B3; assay: Antiviral activity against CVB3 infected in HEp-2 cells assessed as protection from virus-induced cytopathogenicity incubated for 48 hrs by MTT assay; type: functional, organism-based; settings: Enterovirus B, HEp-2, 48 h
[12] = Cytotoxicity against human HEp-2 cells incubated for 48 hrs by MTT assay; type: toxicity, cell-based
[13] = system: Enterovirus; assay: Antiviral activity against EV71 infected in human RD cells assessed as protection from virus-induced cytopathogenicity incubated for 48 hrs by MTT assay; type: functional, organism-based; settings: Enterovirus, 71, RD
[14] = Cytotoxicity against human RD cells incubated for 48 hrs by MTT assay; type: toxicity, cell-based
[15] = system: Coxsackievirus B3; assay: Antiviral activity against CVB3 infected in HEp-2 cells assessed as inhibition of virus-induced cell death at 200 uM incubated for 48 hrs by MTT assay; type: functional, organism-based
[16] = system: Enterovirus; assay: Antiviral activity against EV71 infected in human RD cells assessed as inhibition of virus-induced cell death at 200 uM incubated for 48 hrs by MTT assay; type: functional, organism-based; settings: 71

SMILES	inhibition [1]	inhibition at 100 µM [2]	selectivity ratio [3]	inhibition at 100 µM [4]	inhibition at 50 µM [5]	antiviral activity call (active/inactive) [6]	inhibition at 25 µM [7]	selectivity ratio [8]	inhibition at 25 µM [9]	inhibition at 50 µM [10]	EC50 [11]	CC50 at 48 h [12]	EC50 [13]	CC50 at 48 h [14]	inhibition [15]	inhibition [16]	Imax [2]	inhibition (INH) [4]
O=C1NC2(C(=O)NCCc3c[nH]c4ccccc34)CCC(=O)N2c2ccc(Cl)cc21 (stereo not given)	Active	88.4%	5.4	65.7%	66.8%	Active	57.8%	8.3	38.5%	77.3%	33.5 µM	180 µM	16.8 µM	140 µM				
COC(=O)C(CCSC)NC(=O)C12CCC(=O)N1c1ccccc1C(=O)N2 (stereo not given)		4.8%		27.9%	5%		6.1%		13.3%	21.7%		212 µM		245 µM				
CS(=O)(=O)CCNC(=O)C12CCC(=O)N1c1ccc(Cl)cc1C(=O)N2 (stereo not given)		22.8%		28.5%	28%		33.8%		12.2%	24.3%		202 µM		243 µM				
O=C1NC2(C(=O)NCCc3c[nH]c4ccccc34)CCC(=O)N2c2ccccc21 (stereo not given)	Active	67%	2.8	62.1%	73.1%	Active	64.1%	11.2	28.9%	44.4%	65.8 µM	185 µM	18.6 µM	208 µM				
CS(=O)(=O)CCNC(=O)C12CCC(=O)N1c1ccccc1C(=O)N2 (stereo not given)		1.6%	3.2	11.9%	3.2%		2%		3.6%	6.5%		176 µM		262 µM				
COC(=O)C(Cc1c[nH]c2ccccc12)NC(=O)C12CCC(=O)N1c1ccccc1C(=O)N2C (stereo not given)	Active	78%	3.1	63.7%	65.7%	Active	55.7%	9.8	27.1%	40.3%	66.2 µM	202 µM	28.7 µM	282 µM				
O=C1NC2(C(=O)O)CCC(=O)N2c2ccccc21 (stereo not given)			2.1								143 µM	296 µM		323 µM	Active; Compared To Ribavirin The Antiviral Effect Is Comparable Or Slightly Inferior	inactive		
COc1cc(CNC(=O)C23CCC(=O)N2c2ccccc2C(=O)N3)ccc1O (stereo not given)		91.3%	6.6	82.4%	85.9%	Active	64.3%		42.2%	56.6%	35.8 µM	238 µM		264 µM			91.33%	82.4%
COc1cc(CNC(=O)C23CCC(=O)N2c2ccc(Cl)cc2C(=O)N3)ccc1O (stereo not given)	Active	97.5%	10.8	87.3%	81.3%	Active	67.5%	5.9	48.9%	30.7%	17.4 µM	188 µM	27.2 µM	160 µM			97.48%	92.3%
CN1C(=O)c2ccccc2N2C(=O)CCC12C(=O)NCCS(C)(=O)=O (stereo not given)		62.3%		55.2%	56.7%	Active	33%		38.9%	46.6%	64.5 µM	205 µM		251 µM				
O=C1NC2(C(=O)O)CCC(=O)N2c2ccc(Cl)cc21 (stereo not given)			1.7								142 µM	245 µM		317 µM	Active; Compared To Ribavirin The Antiviral Effect Is Comparable Or Slightly Inferior	inactive		
CSCCNC(=O)C12CCC(=O)N1c1ccccc1C(=O)N2 (stereo not given)		3.9%		26.9%	7.3%		5.7%		7.9%	12.3%		210 µM		288 µM				
COC(=O)C(Cc1c[nH]c2ccccc12)NC(=O)C12CCC(=O)N1c1ccccc1C(=O)N2 (stereo not given)	Active	89.1%	4.1	83.1%	74%	Active	65.8%	8	30.8%	45.7%	43 µM	177 µM	28.8 µM	230 µM				
CC(NC(=O)C12CCC(=O)N1c1ccccc1C(=O)N2)c1ccccc1 (stereo not given)	Active							7.9				205 µM	32.4 µM	256 µM				
CSCCNC(=O)C12CCC(=O)N1c1ccccc1C(=O)N2C (stereo not given)		7.9%		32.1%	13.7%		6.6%		20.7%	24.4%		238 µM		278 µM				
COC(=O)C(CCSC)NC(=O)C12CCC(=O)N1c1ccc(Cl)cc1C(=O)N2 (stereo not given)	Active	58.7%		58.8%	58.8%	Active	50.3%	4.4	29.8%	49.9%	60.1 µM	214 µM	53.4 µM	235 µM				
CSCCNC(=O)C12CCC(=O)N1c1ccc(Cl)cc1C(=O)N2 (stereo not given)	Active	26.2%		46.7%	28.8%		34.9%	6	20.3%	30.1%		315 µM	44.5 µM	269 µM				
COc1cc(CNC(=O)C23CCC(=O)N2c2ccccc2C(=O)N3C)ccc1O (stereo not given)						Active						251 µM		243 µM				
CN1C(=O)c2ccccc2N2C(=O)CCC12C(=O)O (stereo not given)			1.8								152 µM	276 µM		327 µM	Active; Compared To Ribavirin The Antiviral Effect Is Comparable Or Slightly Inferior	inactive		
COC(=O)C(CCSC)NC(=O)C12CCC(=O)N1c1ccccc1C(=O)N2C (stereo not given)		1.3%	3.6	27.3%	6.2%		3.2%		20.8%	20.2%		200 µM		252 µM				
CC(NC(=O)C12CCC(=O)N1c1ccc(Cl)cc1C(=O)N2)c1ccccc1 (stereo not given)	Active	71.7%	2.3	47.9%	53.3%	Active	44.4%	9.2	16%	31.5%	103 µM	239 µM	29.4 µM	270 µM				
CC(NC(=O)C12CCC(=O)N1c1ccccc1C(=O)N2C)c1ccccc1 (stereo not given)												223 µM		234 µM				
COC(=O)C(Cc1c[nH]c2ccccc12)NC(=O)C12CCC(=O)N1c1ccc(Cl)cc1C(=O)N2 (stereo not given)	Active	74%	3.1	63.7%	75.3%	Active	60.6%	6.4	36.6%	45%	55.6 µM	171 µM	24.8 µM	158 µM				
